In PMC9227765 (Viruses, 2022):
Like-named read-outs stand apart in the source and are kept apart here.

How the values were obtained:
EV-A71 H strain [1] = test: CPE protection assay, EV-A71 H strain (CellTiter-Glo); format: cell-based; conditions: Enterovirus A, 100× TCID50, 72 h.p.i., read-out: EC50 against EV-A71 virus
[2] = Cytotoxicity, CellTiter-Glo cell viability, RD cells; format: cell-based, Human; conditions: human, read-out: half-cytotoxic concentration (CC50)
[3] = Cytotoxicity, CellTiter-Glo cell viability, Vero cells; format: cell-based; conditions: African green monkey, read-out: half-cytotoxic concentration (CC50)
[4] = Cytotoxicity, CellTiter-Glo cell viability, Huh7 cells; format: cell-based; conditions: human, read-out: half-cytotoxic concentration (CC50)
EV-A71 AH08/06 strain = test: CPE protection assay, EV-A71 clinical isolate AH08/06; format: cell-based; conditions: Enterovirus A, EVA71, Huh-7; EV-A71 AH08/06, Huh7
[5] = tested on: CV-A6 TW-2007-00141 strain; test: CPE protection assay, CV-A6; format: cell-based, coxsackievirus A6
EV-A71 virus [6] = test: Viral RNA reduction assay (qRT-PCR) in RD cells; format: cell-based, enterovirus A71; conditions: MOI 0.1, 30 h.p.i.
EV-A71 virus [7] = test: Virus particle yield in supernatant (TCID50); format: cell-based, enterovirus A71; conditions: RD cells, MOI 0.1, supernatant, 30 h.p.i.
EV-A71 virus VP1 protein [8] = test: Immunofluorescence assay of VP1; format: cell-based, enterovirus A71; conditions: MOI 1, 16 h.p.i.
EV-A71 virus VP1 protein [9] = test: Western blot of VP1; format: cell-based, enterovirus A71; conditions: RD cells, 24 h; dose-dependent; EIDD-1931 10 to 0.63 μM, EIDD-2801 100 to 6.3 μM
EV-A71 H strain [10] = test: Time-of-drug-addition assay (qRT-PCR); format: cell-based, enterovirus A71; conditions: RD cells, 10 μM, MOI 0.01, 30 h.p.i.
EV-A71 virus (H strain) [11] = test: Lethal EV-A71 challenge of 1-day-old ICR suckling mice: survival and body weight; format: in vivo
EV-A71 virus (H strain) [12] = test: Viral RNA loads in tissues of EV-A71-infected suckling mice (qRT-PCR); format: in vivo; conditions: 200 mg/kg i.p. for 4 consecutive days
EV-A71 = tested on: EV-A71; parameters: method as in earlier work; conditions: cited from earlier work
RD cells = test: Cytotoxicity, CellTiter-Glo cell viability, RD cells; format: cell-based, Human
Vero cells = test: Cytotoxicity, CellTiter-Glo cell viability, Vero cells; format: cell-based
Huh7 cells = test: Cytotoxicity, CellTiter-Glo cell viability, Huh7 cells; format: cell-based
[13] = tested on: EV-D68 STL-2014–12 strain; test: CPE protection assay, EV-D68; format: cell-based; conditions: Enterovirus D, EVD68, EV-D68 STL-2014–12, RD
CV-A16 190-D1 strain = test: CPE protection assay, CV-A16; format: cell-based, coxsackievirus A16; conditions: Enterovirus A, CVA16, CV-A16 190-D1, RD
CV-B3 Nancy strain = test: CPE protection assay, CV-B3; format: cell-based, Coxsackievirus B3; conditions: Enterovirus B, CVB3, CV-B3 Nancy, RD
[14] = in vivo, po, 800 mg; cited from earlier work
[15] = Enterovirus A, CVA6, CV-A6 TW-2007-00141, RD
[16] = 66.6 mg/kg (66.67 printed for EIDD-2801) i.p. once a day for 7 days, until 21 d.p.i.
[17] = 200 mg/kg i.p. once a day for 7 days, observed until 21 d.p.i.

SMILES	EC50 (EV-A71 H strain [1]; EVA71, Huh-7, Huh7 cells) [µM]	EC50 (EV-A71 H strain [1]; EVA71, RD cells) [µM]	EC50 (EV-A71 H strain [1]; EVA71, Vero cells) [µM]	CC50 at 72 h [2] [µM]	CC50 at 72 h [3] [µM]	CC50 at 72 h [4] [µM]	EC50 (EV-A71 AH08/06 strain) [µM]	EC50 [5, 15] [µM]	replication of viral RNA (qRT-PCR) (EV-A71 virus [6])	propagation of infectious viral particles (EV-A71 virus [7])	expression levels of viral VP1 proteins (Western blot) (EV-A71 virus VP1 protein [9])	survival (EV-A71 virus (H strain) [11]; [16])	survival (EV-A71 virus (H strain) [11]; [17])	viral RNA loads in brain, heart, intestine, liver, limb muscle and lung (EV-A71 virus (H strain) [12])	further results
O=c1[nH]c(=NO)ccn1[C@@H]1O[C@H](CO)[C@@H](O)[C@H]1O [EIDD-1931, β-D-N^4-hydroxycytidine]	4.43 ± 0.33	5.13 ± 0.56	7.04 ± 0.38	80.47 ± 0.02	14.1 ± 0.43	34.09 ± 0.06	2.79 ± 0.89	< 20	inhibited the replication of viral RNA in a dose-dependent manner	inhibited	significantly attenuated	all survived	all survived	significantly reduced	EC50 ([5]; CV-A6 TW-2007-00141, RD): 15.7 ± 0.38 µM; expression of EV-A71 VP1 protein (immunofluorescence) (EV-A71 virus VP1 protein [8]; 10 µM): almost completely blocked; EV-A71 viral RNA production, drug added at stages III and IV (post-entry) (EV-A71 H strain [10]): inhibited; survival protection (EV-A71 virus (H strain) [11]; 22.2 mg/kg i.p. once a day for 7 days, until 21 d.p.i.): 60%; body weight (EV-A71 virus (H strain) [11]; 66.6 mg/kg i.p. for 7 days, until 21 d.p.i.): good weight maintenance and growth; body weight (EV-A71 virus (H strain) [11]; 200 mg/kg i.p. for 7 days, until 21 d.p.i.): good weight maintenance and growth; time within which the mice died (EV-A71 virus (H strain) [11]; low-dose group 7.41 mg/kg i.p. once a day for 7 days): ≤ 12 days
C#C[C@@]1(O)[C@H](O)[C@@H](CO)O[C@H]1n1ccc2c(N)ncnc21 [NITD008, 7-Deaza-2′-C-acetylene-adenosine]															anti-EV-A71 activity (EV-A71): potent anti-EV-A71 activity
CC(C)C(=O)OC[C@H]1O[C@@H](n2ccc(NO)nc2=O)[C@H](O)[C@@H]1O [EIDD-2801, molnupiravir]	35.6 ± 0.47	70.1 ± 4.4	88.5 ± 3.18	> 100	> 100	> 100	30.3 ± 0.55	> 100	inhibited the replication of viral RNA in a dose-dependent manner	inhibited	significantly attenuated	67%	100%	significantly reduced	half-cytotoxic concentration (CC50) (RD cells): no significant cytotoxicity; half-cytotoxic concentration (CC50) (Vero cells): no significant cytotoxicity; half-cytotoxic concentration (CC50) (Huh7 cells): no significant cytotoxicity; EC50 [13]: 86.2 ± 9.17 µM; EC50 (CV-A16 190-D1 strain): 44.9 ± 4.23 µM; EC50 (CV-B3 Nancy strain): 87.2 ± 10.8 µM; expression of EV-A71 VP1 protein (immunofluorescence) (EV-A71 virus VP1 protein [8]; 100 µM): partly inhibited; Cmax [14]: 16.1 µM
